# Measured values taken from the supplement of paper PMC10307832.
# Compound: CC(O)(CS(=O)(=O)c1ccc(F)cc1)C(=O)Nc1ccc(C#N)c(C(F)(F)F)c1 [Bicalutamide] + N=C(N)NC(=N)NCCc1ccccc1 [Phenformin] (partner 250 µM)
# Test: relative viability (nuclei count vs DMSO), 5 days (fraction); higher = more cells survive
# Details: first compound 0.08 µM
# Summary of the method: (§1)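 Dosing by pin tool came one day after lung cancer cell lines were seeded in 1536-well plates, using either one drug or a fixed anchor-drug dose plus five library-drug doses (not always all listed) in √10 steps. After 5 days, nuclei were counted on 4× images. Relative viability is treated-well nuclei count divided by vehicle-well nuclei count, and values are medians of duplicate plates.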
row,Cell Line,relative viability
1,NCI-H441,0.849
2,LCLC-97TM1,0.442
3,NCI-H2023,0.447
4,A-427,0.382
5,NCI-H460,0.559
6,NCI-H727,0.618
7,NCI-H1734,0.41
8,NCI-H520,0.707
9,NCI-H2405,0.436
10,SW 1573,0.413
11,NCI-H1395,0.467
12,201T,0.503
13,NCI-H1915,0.375
14,HCC-827,0.405
15,LXF-289,0.596
16,NCI-H2347,0.368
17,NCI-H650,0.52
18,CAL-12T,0.609

row,Cell Line,relative viability
1,NCI-H1651,0.36
2,EPLC-272H,0.34
3,NCI-H23,0.851
4,NCI-H1792,0.275
5,NCI-H1355,0.456
6,NCI-H322M,0.821
7,NCI-H1437,0.341
8,NCI-H1755,0.651
9,NCI-H2085,0.742
10,HCC-15,0.513
11,NCI-H1793,0.317
12,PC-3 [JPC-3],0.46
13,EKVX,0.246
14,LC-2-ad,0.607
15,NCI-H1944,0.216
16,NCI-H1975,0.4
17,SK-LU-1,0.571

# Same assay, conditions: first compound 0.253 µM
row,Cell Line,relative viability
1,NCI-H441,0.745
2,LCLC-97TM1,0.426
3,NCI-H2023,0.315
4,A-427,0.283
5,NCI-H460,0.524
6,NCI-H1734,0.338
7,NCI-H520,0.421
8,NCI-H2405,0.358
9,NCI-H1395,0.417
10,201T,0.414
11,NCI-H1915,0.313
12,HCC-827,0.316
13,LXF-289,0.481
14,NCI-H2347,0.462
15,NCI-H650,0.433
16,CAL-12T,0.505

row,Cell Line,relative viability
1,NCI-H1651,0.377
2,EPLC-272H,0.274
3,NCI-H23,0.694
4,NCI-H1355,0.44
5,NCI-H322M,0.789
6,NCI-H1437,0.264
7,NCI-H1755,0.595
8,NCI-H2085,0.686
9,HCC-15,0.418
10,NCI-H1793,0.318
11,PC-3 [JPC-3],0.472
12,EKVX,0.223
13,LC-2-ad,0.529
14,NCI-H1944,0.181
15,NCI-H1975,0.409
16,SK-LU-1,0.519

# Same assay, conditions: first compound 0.8 µM
row,Cell Line,relative viability
1,NCI-H441,1.09
2,LCLC-97TM1,0.463
3,NCI-H2023,0.456
4,A-427,0.367
5,NCI-H460,0.834
6,NCI-H727,0.734
7,NCI-H1734,0.458
8,NCI-H520,0.61
9,NCI-H2405,0.468
10,SW 1573,0.377
11,NCI-H1395,0.478
12,201T,0.481
13,NCI-H1915,0.368
14,HCC-827,0.412
15,LXF-289,0.55
16,NCI-H2347,0.421
17,NCI-H650,0.466
18,CAL-12T,0.626

row,Cell Line,relative viability
1,NCI-H1651,0.411
2,EPLC-272H,0.311
3,NCI-H23,0.883
4,NCI-H1792,0.444
5,NCI-H1355,0.481
6,NCI-H322M,0.904
7,NCI-H1437,0.422
8,NCI-H1755,0.596
9,NCI-H2085,0.781
10,HCC-15,0.6
11,NCI-H1793,0.545
12,PC-3 [JPC-3],0.505
13,EKVX,0.233
14,LC-2-ad,0.654
15,NCI-H1944,0.238
16,NCI-H1975,0.442
17,SK-LU-1,0.637

# Same assay, conditions: first compound 2.53 µM
row,Cell Line,relative viability
1,NCI-H441,0.683
2,LCLC-97TM1,0.443
3,NCI-H2023,0.454
4,A-427,0.224
5,NCI-H460,0.52
6,NCI-H727,0.821
7,NCI-H1734,0.416
8,NCI-H520,0.366
9,NCI-H2405,0.415
10,SW 1573,0.366
11,NCI-H1395,0.446
12,201T,0.416
13,NCI-H1915,0.362
14,HCC-827,0.443
15,LXF-289,0.519
16,NCI-H2347,0.268
17,NCI-H650,0.395
18,CAL-12T,0.493

row,Cell Line,relative viability
1,NCI-H1651,0.345
2,EPLC-272H,0.315
3,NCI-H23,0.765
4,NCI-H1792,0.344
5,NCI-H1355,0.492
6,NCI-H322M,0.859
7,NCI-H1437,0.309
8,NCI-H1755,0.551
9,NCI-H2085,0.608
10,HCC-15,0.484
11,NCI-H1793,0.392
12,PC-3 [JPC-3],0.505
13,EKVX,0.24
14,LC-2-ad,0.56
15,NCI-H1944,0.217
16,NCI-H1975,0.37
17,SK-LU-1,0.48

# Compound: C(C(=O)C(=O)O)Br [Bromopyruvate] + CC(=O)c1c(C)c2cnc(Nc3ccc(N4CCNCC4)cn3)nc2n(C2CCCC2)c1=O [Palbociclib] (partner 0.5 µM)
# Test: as above
# Details: first compound 1 µM
# Summary of the method: as §1
row,Cell Line,relative viability
1,NCI-H441,0.242
2,LCLC-97TM1,0.203
3,NCI-H2023,0.406
4,A-427,0.51
5,NCI-H460,0.161
6,NCI-H727,0.702
7,NCI-H1734,0.349
8,NCI-H520,0.235
9,NCI-H2405,0.51
10,SW 1573,0.401
11,NCI-H1395,0.551
12,201T,0.341
13,NCI-H1915,0.524
14,HCC-827,0.434
15,LXF-289,0.625
16,NCI-H2347,0.44
17,NCI-H650,0.385
18,CAL-12T,0.429

row,Cell Line,relative viability
1,NCI-H1651,0.479
2,EPLC-272H,0.321
3,NCI-H23,0.466
4,NCI-H1792,0.673
5,NCI-H1355,0.388
6,NCI-H322M,0.463
7,NCI-H1437,0.342
8,NCI-H1755,0.477
9,NCI-H2085,0.491
10,HCC-15,0.654
11,NCI-H1793,0.291
12,PC-3 [JPC-3],0.548
13,EKVX,0.217
14,LC-2-ad,0.528
15,NCI-H1944,0.32
16,NCI-H1975,0.66
17,SK-LU-1,0.372

# Same assay, conditions: first compound 3.162 µM
row,Cell Line,relative viability
1,NCI-H441,0.242
2,LCLC-97TM1,0.21
3,NCI-H2023,0.382
4,A-427,0.552
5,NCI-H460,0.247
6,NCI-H727,0.654
7,NCI-H1734,0.378
8,NCI-H520,0.209
9,NCI-H2405,0.53
10,SW 1573,0.395
11,NCI-H1395,0.531
12,201T,0.348
13,NCI-H1915,0.532
14,HCC-827,0.542
15,LXF-289,0.649
16,NCI-H2347,0.493
17,NCI-H650,0.306

row,Cell Line,relative viability
1,CAL-12T,0.444
2,NCI-H1651,0.477
3,EPLC-272H,0.372
4,NCI-H23,0.482
5,NCI-H1792,0.698
6,NCI-H1355,0.401
7,NCI-H322M,0.438
8,NCI-H1437,0.285
9,NCI-H1755,0.43
10,NCI-H2085,0.469
11,HCC-15,0.677
12,NCI-H1793,0.354
13,EKVX,0.387
14,LC-2-ad,0.487
15,NCI-H1944,0.333
16,NCI-H1975,0.619
17,SK-LU-1,0.363

# Same assay, conditions: first compound 10 µM
row,Cell Line,relative viability
1,NCI-H441,0.256
2,LCLC-97TM1,0.276
3,NCI-H2023,0.4
4,A-427,0.551
5,NCI-H460,0.148
6,NCI-H727,0.663
7,NCI-H1734,0.39
8,NCI-H520,0.228
9,NCI-H2405,0.549
10,SW 1573,0.373
11,NCI-H1395,0.724
12,201T,0.344
13,NCI-H1915,0.538
14,HCC-827,0.472
15,LXF-289,0.629
16,NCI-H2347,0.399
17,NCI-H650,0.316
18,CAL-12T,0.552

row,Cell Line,relative viability
1,NCI-H1651,0.542
2,EPLC-272H,0.386
3,NCI-H23,0.601
4,NCI-H1792,0.684
5,NCI-H1355,0.356
6,NCI-H322M,0.447
7,NCI-H1437,0.323
8,NCI-H1755,0.45
9,NCI-H2085,0.489
10,HCC-15,0.846
11,NCI-H1793,0.325
12,PC-3 [JPC-3],0.537
13,EKVX,0.459
14,LC-2-ad,0.466
15,NCI-H1944,0.335
16,NCI-H1975,0.566
17,SK-LU-1,0.365

# Same assay, conditions: first compound 31.62 µM
row,Cell Line,relative viability
1,NCI-H441,0.222
2,LCLC-97TM1,0.239
3,NCI-H2023,0.411
4,A-427,0.536
5,NCI-H460,0.196
6,NCI-H727,0.646
7,NCI-H1734,0.34
8,NCI-H520,0.232
9,SW 1573,0.266
10,NCI-H1395,0.614
11,201T,0.35
12,NCI-H1915,0.514
13,HCC-827,0.541
14,LXF-289,0.637
15,NCI-H2347,0.405
16,NCI-H650,0.338

row,Cell Line,relative viability
1,CAL-12T,0.395
2,NCI-H1651,0.519
3,EPLC-272H,0.31
4,NCI-H23,0.572
5,NCI-H1355,0.373
6,NCI-H322M,0.421
7,NCI-H1437,0.314
8,NCI-H1755,0.431
9,NCI-H2085,0.539
10,HCC-15,0.771
11,NCI-H1793,0.365
12,EKVX,0.494
13,LC-2-ad,0.488
14,NCI-H1944,0.319
15,NCI-H1975,0.551
16,SK-LU-1,0.346

# Same assay, conditions: first compound 100 µM
row,Cell Line,relative viability
1,NCI-H441,0.255
2,LCLC-97TM1,0.214
3,NCI-H2023,0.385
4,A-427,0.497
5,NCI-H460,0.186
6,NCI-H727,0.648
7,NCI-H1734,0.295
8,NCI-H520,0.267
9,NCI-H2405,0.458
10,SW 1573,0.0467
11,NCI-H1395,0.662
12,201T,0.382
13,NCI-H1915,0.56
14,HCC-827,0.517
15,LXF-289,0.638
16,NCI-H2347,0.448
17,NCI-H650,0.335
18,CAL-12T,0.285

row,Cell Line,relative viability
1,NCI-H1651,0.492
2,EPLC-272H,0.362
3,NCI-H23,0.387
4,NCI-H1792,0.656
5,NCI-H1355,0.407
6,NCI-H322M,0.454
7,NCI-H1437,0.305
8,NCI-H1755,0.456
9,NCI-H2085,0.521
10,HCC-15,0.741
11,NCI-H1793,0.341
12,PC-3 [JPC-3],0.536
13,EKVX,0.44
14,LC-2-ad,0.499
15,NCI-H1944,0.311
16,NCI-H1975,0.569
17,SK-LU-1,0.428

# Compound: C(C(=O)C(=O)O)Br [Bromopyruvate] + COc1cccc2cc(-c3nc([C@H]4CC[C@H](C(=O)O)CC4)n4ncnc(N)c34)[nH]c12 [OSI-027] (partner 0.5 µM)
# Test: as above
# Details: first compound 1 µM
# Summary of the method: as §1
row,Cell Line,relative viability
1,NCI-H441,0.709
2,LCLC-97TM1,0.53
3,NCI-H2023,0.391
4,A-427,0.562
5,NCI-H460,0.588
6,NCI-H727,0.644
7,NCI-H1734,0.599
8,NCI-H520,0.243
9,NCI-H2405,0.585
10,SW 1573,0.751
11,NCI-H1395,0.679
12,201T,0.508
13,NCI-H1915,0.669
14,HCC-827,0.779
15,LXF-289,0.809
16,NCI-H2347,0.453
17,NCI-H650,0.584
18,CAL-12T,0.578
19,NCI-H1651,0.746
20,EPLC-272H,0.245
